Like-named read-outs stand apart in the source and are kept apart here. Marks after values point to notes of the source that are not given here.
How the values were obtained:
[1] = tested on: Colletotrichum lindemuthianum; test: In vivo preventive test on Colletotrichum lindemuthianum (Anthracnose on bean); conditions: sprayed 72 hours before inoculation, evaluated 6 days after inoculation; for pest or weed control at 125 ppm / pest or weed control at 31 ppm / pest or weed control at 500 ppm: Colletotrichum lindemuthianum, 144 h, read-out: efficacy; for pest or weed control at 31 ppm: 31 ppm of active ingredient; for pest or weed control at 500 ppm: 500 ppm of active ingredient
Summary of the method: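 Young bean plants were sprayed with compound in acetone/DMSO/Tween diluted in water, then inoculated 72 h later with C. lindemuthianum spores. Incubation was 24 h at 20 °C/100% RH, then 5 days at 20 °C/90% RH. Efficacy scored 6 days post-inoculation: 0% equals solvent-treated control, 100% means no disease.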

[2] = tested on: Xanthomonas campestris pv. campestris; test: In vivo preventive test on Xanthomonas campestris pv. campestris (black rot on cabbage); conditions: Xanthomonas campestris, sprayed 72 hours before inoculation, evaluated 8 or 10 days after inoculation, read-out: efficacy; for pest or weed control at 31 ppm: 31 ppm of active ingredient; for pest or weed control at 500 ppm: 500 ppm of active ingredient; for pest or weed control at 125 ppm: 125 ppm of active ingredient
Summary of the method: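 Young cabbage plants sprayed preventively with compound formulated in acetone/DMSO/Tween and diluted in water, then inoculated 72 h later with a bacterial spray. Kept at 27° C, 95% relative humidity; disease scored after 8 or 10 days as % efficacy versus solvent-treated controls (0% = control, 100% = no disease).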

[3] = tested on: Pseudomonas syringae pv. tomato; test: In vivo preventive test on Pseudomonas syringae pv. tomato (bacterial speck on tomato); conditions: 125 ppm of active ingredient, sprayed 72 hours before inoculation, evaluated 5 or 6 days after inoculation, read-out: efficacy
Method: The tested active ingredients were prepared by homogenization in a mixture of acetone/Dimethyl sulfoxide/Tween®, and then diluted with water to obtain the desired active material concentration.
The young plants of tomato were treated by spraying the active ingredient prepared as described above. Control plants were treated only with an aqueous solution of acetone/Dimethyl sulfoxide/Tween®.
After 72 hours, the plants were contaminated by spraying the leaves with an aqueous bacteria suspension of Pseudomonas syringae pv. tomato. The contaminated tomato plants were incubated for 4 days in saturated atmosphere at 22° C. day/20° C. night−70% HR and then for 1 or 2 days at 22° C. day/20° C. night at 70-80% relative humidity.
The test was evaluated 5 or 6 days after the inoculation. 0% means an efficacy which corresponds to that of the control plants while an efficacy of 100% means that no disease was observed.

[4] = tested on: Uromyces appendiculatus; test: In vivo preventive test on Uromyces appendiculatus (bean rust); conditions: 240 h, sprayed 72 hours before inoculation, evaluated 10 days after inoculation, read-out: efficacy; for pest or weed control at 125 ppm: 125 ppm of active ingredient; for pest or weed control at 500 ppm: 500 ppm of active ingredient
Summary of the method: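 Young bean plants sprayed with compound in acetone/DMSO/Tween diluted in water, then inoculated 72 h later with spore suspension. Incubated 24 h at 20° C., 100% RH, then 9 days at 20° C., 70-80% RH. Efficacy scored 10 days post-inoculation, 0% = untreated-control level, 100% = no disease.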

[5] = tested on: salicylate responsive promoter sequence of the PR1 (pathogenesis-related protein I) gene (AT2G14610); test: Induction of defense gene expression in Arabidopsis thaliana (PR1 promoter-GFP reporter plants); format: in vivo; conditions: 72 h, 3rd day after spraying, mock treated leaves set as 1.00, read-out: relative fluorescence value
Summary of the method: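 Transgenic A. thaliana carrying GFP under the salicylate-responsive PR1 promoter, grown five days, then sprayed with compounds. Whole-plant fluorescence imaged and quantified on day 3 post-spray, expressed relative to mock-treated leaf background set at 1.00.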

[6] = LogP by HPLC on reversed phase columns (EEC directive 79/831 Annex V.A8); format: physicochemical; conditions: reversed phase HPLC columns
Summary of the method: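 Reversed-phase HPLC, calibrated with straight-chain alkan-2-ones (C3–C16) of known LogP; values by linear interpolation of retention times between successive alkanones. Multiple values from one method are joined by "+"; lambda-max taken from 200–400 nm UV spectra at chromatographic peaks.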

[7] = tested on: Alternaria alternata; test: Alternaria alternata in vitro cell test; format: cell-based; conditions: 120 h, 5 days incubation, read-out: efficacy (inhibition of fungal growth; no direct activity); for inhibition at 5 ppm: 5 ppm of active ingredient; for inhibition at 20 ppm: 20 ppm of active ingredient
Summary of the method: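 A. alternata spores in glucose/peptone/yeast-extract liquid medium were exposed to DMSO-solubilized compound (final DMSO ≤1%). After 5 days incubation, mycelium growth read spectrometrically; inhibition derived from absorbance relative to fungicide-free control wells.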

[8] = tested on: Pseudomonas syringae pv. tomato; test: Pseudomonas syringae pv. tomato in vitro cell test; format: cell-based; conditions: 20 ppm of active ingredient, 24 h of incubation, read-out: efficacy (inhibition of bacteria growth; no direct activity)
Summary of the method: (§1)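 Bacteria from liquid pre-culture diluted to set OD in LB broth and exposed to compounds dissolved in DMSO (final ≤1%). After 24 h, growth read by absorbance; inhibition derived relative to compound-free control wells.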

[9] = tested on: Colletotrichum lindemuthianum; test: Colletotrichum lindemuthianum in vitro cell test; format: cell-based; conditions: 144 h, 6 days incubation, read-out: efficacy (inhibition of fungal growth; no direct activity); for inhibition at 5 ppm: 5 ppm of active ingredient; for inhibition at 20 ppm: 20 ppm of active ingredient
Summary of the method: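 C. lindemuthianum spore suspension grown in liquid glucose/peptone/yeast-extract medium with compound (final DMSO ≤1%). After 6 days, mycelial growth measured by absorbance; inhibition calculated versus fungicide-free control wells.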

[10] = tested on: Peronospora parasitica; test: In vivo preventive test on Peronospora parasitica (Crucifer downy mildew) on cabbage; conditions: Hyaloperonospora parasitica, 120 h, sprayed 72 hours before inoculation, evaluated 5 days after inoculation, read-out: efficacy; for pest or weed control at 31 ppm: 31 ppm of active ingredient; for pest or weed control at 125 ppm: 125 ppm of active ingredient; for pest or weed control at 500 ppm: 500 ppm of active ingredient
Summary of the method: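 Young cabbage plants were sprayed with compound in aqueous acetone/DMSO/Tween, then inoculated 72 h later with P. parasitica spores and held 5 days at 20 °C, 100% RH. Efficacy scored 5 days post-inoculation: 0% equals solvent-treated controls, 100% means no disease.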

[11] = tested on: Xanthomonas campestris pv. campestris; test: Xanthomonas campestris pv. campestris in vitro cell test; format: cell-based; conditions: 24 h of incubation, read-out: efficacy (inhibition of bacteria growth; no direct activity); for inhibition at 5 ppm: 5 ppm of active ingredient; for inhibition at 20 ppm: 20 ppm of active ingredient
Summary of the method: as §1

Row | chromatographic logP ([6]; method [a]) | SMILES | pest or weed control at 125 ppm ([1]; 125 ppm of active ingredient) [%] | pest or weed control at 31 ppm [2] [%] | pest or weed control at 500 ppm [2] [%] | pest or weed control at 125 ppm [4] [%] | pest or weed control at 31 ppm [1] [%] | pest or weed control at 500 ppm [1] [%] | fold induction at 300 ppm [5] | inhibition at 5 ppm [7] [%] | inhibition at 20 ppm [7] [%] | inhibition at 20 ppm [8] [%] | pest or weed control at 125 ppm [2] [%] | inhibition at 5 ppm [9] [%] | inhibition at 20 ppm [9] [%] | pest or weed control at 31 ppm [10] [%] | pest or weed control at 125 ppm [10] [%] | pest or weed control at 500 ppm [10] [%] | inhibition at 5 ppm [11] [%] | inhibition at 20 ppm [11] [%] | pest or weed control at 500 ppm [4] [%] | also measured
1 | – | O=C(NC(C(=O)O)C1CC1)c1cc(Cl)c(Cl)s1 (stereo not drawn) [CMP9, reference compound] | 30 | < 20 | 0 | < 40 | – | – | – | – | – | – | – | – | – | – | – | – | – | – | – | efficacy ([1]; 125 ppm of active ingredient): 30* %; pest or weed control at 125 ppm [3]: 34%
2 | – | CCOC(=O)[C@@H](NC(=S)c1sc(Br)c(Br)c1C)C(C)C [I.023, ethyl N-[(4,5-dibromo-3-methyl-2-thienyl)carbonothioyl]valinate] | 90 to 100 | – | 70 to 79 | – | 90 to 100 | 90 to 100 | > 2 | ≤ 30 | ≤ 30 | ≤ 30 | 80 to 89 | ≤ 30 | ≤ 30 | 80 to 89 | 90 to 100 | 90 to 100 | ≤ 30 | ≤ 30 | – | chromatographic logP ([6]; preparation examples, method not indicated, read-out: Log P): 5.22
3 | 3.37 | CCOC(=O)C(COC)NC(=O)c1sc(Cl)c(Cl)c1C (stereo not drawn) [I.044] | 90 to 100 | 70 to 79 | – | 90 to 100 | 80 to 89 | 90 to 100 | > 2 | ≤ 30 | – | ≤ 30 | 80 to 89 | ≤ 30 | – | 90 to 100 | 90 to 100 | 90 to 100 | ≤ 30 | ≤ 30 | 90 to 100 | fold induction at 75 ppm [5]: > 2; pest or weed control at 31 ppm ([4]; 31 ppm of active ingredient): 90 to 100%
4 | 1.5 | COC(=O)C(Cc1c[nH]cn1)NC(=O)c1sc(Br)c(Br)c1C (stereo not drawn) [I.033] | 80 to 89 | 70 to 79 | – | – | – | 90 to 100 | > 2 | ≤ 30 | ≤ 30 | ≤ 30 | 70 to 79 | ≤ 30 | ≤ 30 | – | 70 to 79 | 80 to 89 | ≤ 30 | ≤ 30 | 90 to 100 | –
5 | 2.48 | CCOC(=O)C(CO)NC(=O)c1sc(Cl)c(Cl)c1C (stereo not drawn) [I.039] | – | 70 to 79 | – | – | – | 90 to 100 | > 2 | ≤ 30 | ≤ 30 | ≤ 30 | 70 to 79 | ≤ 30 | ≤ 30 | 90 to 100 | 90 to 100 | 90 to 100 | ≤ 30 | ≤ 30 | 80 to 89 | fold induction at 75 ppm [5]: > 2

— US12509437B2, “Substituted thiophene carboxamides and derivatives thereof as microbicides” (Bayer Aktiengesellschaft, priority 2019, dated 2025)
